Reference: PubChem BioAssay (NCI)
Several values for one entry are separate records, joined by “and”; a condition that tells them apart may be missing. Identical values can stand only once.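 How tested: cells in 96-well plates exposed to compound for 48 hours at five concentrations. Abbreviation: GI50, concentration required for 50% inhibition of growth. TGI denotes the concentration required for complete inhibition of growth.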

Experiments:
Assay in all cases: NCI-60 cell line screen, 48 h
OVCAR-5 ovarian = test system: OVCAR-5 ovarian
SW-620 colon = test system: SW-620 colon
SNB-75 CNS = test system: SNB-75 CNS
SNB-19 CNS = test system: SNB-19 CNS
CAKI-1 renal = test system: CAKI-1 renal
K-562 leukemia = test system: K-562 leukemia
EKVX NSCLC = test system: EKVX NSCLC
NCI-H522 lung = test system: NCI-H522 lung
COLO 205 colon = test system: COLO 205 colon
IGROV1 ovarian = test system: IGROV1 ovarian

SMILES	GI50 (OVCAR-5 ovarian)	TGI (OVCAR-5 ovarian)	GI50 (SW-620 colon)	TGI (SW-620 colon)	GI50 (SNB-75 CNS)	TGI (SNB-75 CNS)	GI50 (SNB-19 CNS)	TGI (SNB-19 CNS)	GI50 (CAKI-1 renal)	TGI (CAKI-1 renal)	GI50 (K-562 leukemia)	TGI (K-562 leukemia)	GI50 (EKVX NSCLC)	TGI (EKVX NSCLC)	GI50 (NCI-H522 lung)	TGI (NCI-H522 lung)	GI50 (COLO 205 colon)	TGI (COLO 205 colon)	GI50 (IGROV1 ovarian)	TGI (IGROV1 ovarian)
CCN(CC)CCOc1ccc(/C(=C(\C)Cc2ccc(OC)cc2)c2ccc(OC(=O)NCc3ccccc3)cc2)cc1	3.63 µM	14.6 µM	1.91 µM	3.59 µM	2.42 µM	8.48 µM	3.5 µM	11.6 µM	2.27 µM	6.53 µM	1.75 µM	4.52 µM	2.63 µM	11.5 µM	1.93 µM	4.24 µM	1.86 µM	3.76 µM	2.46 µM	6.11 µM
Cc1c2c(nn1C(=O)c1nn(-c3ccc(Cl)cc3)cc1O)-c1ccccc1CC2	0.0723 µM	> 100 µM	0.289 µM	> 100 µM	0.0303 µM	> 100 µM	0.0446 µM	> 100 µM	0.0971 µM	6.85 µM	0.0273 µM	> 100 µM	0.0707 µM	> 100 µM	0.0376 µM	0.717 µM	0.323 µM	4.22 µM	0.0429 µM	> 100 µM
COc1ccc(-c2cc(=O)c3c(OC)c(OC)c(OC)c(OC)c3o2)cc1OC		> 100 µM		> 100 µM		> 100 µM		> 100 µM		> 100 µM		> 100 µM		> 100 µM		> 100 µM		> 100 µM		> 100 µM
O=C(Nc1nccs1)c1cc2c(cc1Cl)Sc1nccn1S2(=O)=O	21.7 µM	46 µM	16.8 µM	42 µM	18.8 µM	35.4 µM	18.9 µM	37 µM	8.5 µM	36.9 µM	15.9 µM	37.1 µM	20.6 µM	44.7 µM	1.23 µM	2.85 µM		30.7 µM	11.7 µM	29.8 µM
Cc1cccc2c(N=Nc3ccc(S(N)(=O)=O)cc3)c(O)[nH]c12	> 25 µM	> 25 µM	> 25 µM	> 25 µM	> 25 µM	> 25 µM	> 25 µM	> 25 µM	> 25 µM	> 25 µM	> 25 µM	> 25 µM	> 25 µM	> 25 µM	> 25 µM	> 25 µM	> 25 µM	> 25 µM	> 25 µM	> 25 µM
C#CCOCn1cnc2c(=S)nc[nH]c21		> 100 µM		> 100 µM		98.9 µM		> 100 µM		> 100 µM		> 100 µM		> 100 µM		> 100 µM		> 100 µM		> 100 µM
CC(=O)O[C@H]1C(=O)O[C@@H]2C[C@H]3C(C)=CC(=O)[C@@H](O)[C@]3(C)[C@H]3[C@@]4(O)OC[C@]32[C@@H]1[C@@H](C)[C@H]4O	0.0588 µM	1.11 µM and 3.51 µM	0.033 µM	0.445 µM and 0.653 µM	< 0.017 µM	0.104 µM and 0.154 µM	0.0138 µM and 0.0382 µM	0.0995 µM and 0.135 µM	0.0752 µM	2.36 µM and 2.13 µM	0.0188 µM	0.125 µM and 0.128 µM	0.159 µM	1.12 µM and 0.219 µM	< 0.0116 µM	0.226 µM and 0.0582 µM	0.136 µM	0.365 µM and 0.686 µM	< 0.01 µM	1.4 µM and 0.247 µM
C/C=C/C=N/N(C(=O)c1cc([N+](=O)[O-])cc([N+](=O)[O-])c1)C1=NC(c2ccccc2)C(c2ccccc2)=NN1 (centres undefined)		> 100 µM		> 100 µM		> 100 µM		> 100 µM		> 100 µM		> 100 µM		> 100 µM		57 µM		75 µM		> 100 µM
O=C1N=C(c2ccccc2)OC1C(=O)c1ccccc1 (centres undefined)		> 100 µM		> 100 µM		> 100 µM		> 100 µM		> 100 µM		> 100 µM		> 100 µM		> 100 µM		> 100 µM		> 100 µM
N=C1N(c2ccccc2)C(=O)C23CCCC2C13N1CCOCC1 (centres undefined)		> 100 µM		> 100 µM		> 100 µM		> 100 µM		> 100 µM		> 100 µM		> 100 µM		> 100 µM		> 100 µM		> 100 µM
COC(=O)C(=O)C(C(=O)C(=O)Nc1ccc(Cl)cc1C)c1nc2ccc(C(=O)c3ccccc3)cc2[nH]c1=O (centres undefined)		> 100 µM		> 100 µM		> 100 µM		> 100 µM		> 100 µM		> 100 µM		> 100 µM		> 100 µM		> 100 µM		> 100 µM
COc1ccc(/C(C)=C(\c2ccc(Cl)cc2)c2ccc(OCCN3CCCC3)cc2)cc1F	3.15 µM	6.37 µM	2.5 µM	5.68 µM	4.42 µM	8.22 µM	3.87 µM	7.41 µM	3.43 µM	6.69 µM	0.944 µM	4.54 µM	3.73 µM	7.27 µM	4.35 µM	8.94 µM	2.16 µM	7.49 µM	3.17 µM	7.21 µM
CN=C1Nc2ccc(Cl)cc2C(c2ccccc2)=NN1C		> 100 µM		> 100 µM		> 100 µM		> 100 µM		> 100 µM		> 100 µM		> 100 µM		> 100 µM		> 100 µM		> 100 µM
